# Data reported in patent publication US20240050435A1, “METHODS FOR TREATING CANCER” (Washington University, priority 2022, published 2024).
# Key:
# [1] = target: ATR (Homo sapiens, UniProt Q13535); settings: cited from earlier work
# [2] = tested on: TP53-mutant hematopoietic stem cells (HSCs); test: Mixed bone marrow chimeras (wildtype and R172H TP53 bone marrow); type: in vivo; settings: mice with mixed wildtype / R172H TP53 bone marrow chimeras
# Source text: To assess the impact of combination treatment on TP53-mutant hematopoietic stem cells (HSCs), mixed bone marrow chimeras transplanted with both wildtype and R172H TP53 bone marrow were established as illustrated in FIG. 13.
# Chain of ATR (Q13535 whole entry): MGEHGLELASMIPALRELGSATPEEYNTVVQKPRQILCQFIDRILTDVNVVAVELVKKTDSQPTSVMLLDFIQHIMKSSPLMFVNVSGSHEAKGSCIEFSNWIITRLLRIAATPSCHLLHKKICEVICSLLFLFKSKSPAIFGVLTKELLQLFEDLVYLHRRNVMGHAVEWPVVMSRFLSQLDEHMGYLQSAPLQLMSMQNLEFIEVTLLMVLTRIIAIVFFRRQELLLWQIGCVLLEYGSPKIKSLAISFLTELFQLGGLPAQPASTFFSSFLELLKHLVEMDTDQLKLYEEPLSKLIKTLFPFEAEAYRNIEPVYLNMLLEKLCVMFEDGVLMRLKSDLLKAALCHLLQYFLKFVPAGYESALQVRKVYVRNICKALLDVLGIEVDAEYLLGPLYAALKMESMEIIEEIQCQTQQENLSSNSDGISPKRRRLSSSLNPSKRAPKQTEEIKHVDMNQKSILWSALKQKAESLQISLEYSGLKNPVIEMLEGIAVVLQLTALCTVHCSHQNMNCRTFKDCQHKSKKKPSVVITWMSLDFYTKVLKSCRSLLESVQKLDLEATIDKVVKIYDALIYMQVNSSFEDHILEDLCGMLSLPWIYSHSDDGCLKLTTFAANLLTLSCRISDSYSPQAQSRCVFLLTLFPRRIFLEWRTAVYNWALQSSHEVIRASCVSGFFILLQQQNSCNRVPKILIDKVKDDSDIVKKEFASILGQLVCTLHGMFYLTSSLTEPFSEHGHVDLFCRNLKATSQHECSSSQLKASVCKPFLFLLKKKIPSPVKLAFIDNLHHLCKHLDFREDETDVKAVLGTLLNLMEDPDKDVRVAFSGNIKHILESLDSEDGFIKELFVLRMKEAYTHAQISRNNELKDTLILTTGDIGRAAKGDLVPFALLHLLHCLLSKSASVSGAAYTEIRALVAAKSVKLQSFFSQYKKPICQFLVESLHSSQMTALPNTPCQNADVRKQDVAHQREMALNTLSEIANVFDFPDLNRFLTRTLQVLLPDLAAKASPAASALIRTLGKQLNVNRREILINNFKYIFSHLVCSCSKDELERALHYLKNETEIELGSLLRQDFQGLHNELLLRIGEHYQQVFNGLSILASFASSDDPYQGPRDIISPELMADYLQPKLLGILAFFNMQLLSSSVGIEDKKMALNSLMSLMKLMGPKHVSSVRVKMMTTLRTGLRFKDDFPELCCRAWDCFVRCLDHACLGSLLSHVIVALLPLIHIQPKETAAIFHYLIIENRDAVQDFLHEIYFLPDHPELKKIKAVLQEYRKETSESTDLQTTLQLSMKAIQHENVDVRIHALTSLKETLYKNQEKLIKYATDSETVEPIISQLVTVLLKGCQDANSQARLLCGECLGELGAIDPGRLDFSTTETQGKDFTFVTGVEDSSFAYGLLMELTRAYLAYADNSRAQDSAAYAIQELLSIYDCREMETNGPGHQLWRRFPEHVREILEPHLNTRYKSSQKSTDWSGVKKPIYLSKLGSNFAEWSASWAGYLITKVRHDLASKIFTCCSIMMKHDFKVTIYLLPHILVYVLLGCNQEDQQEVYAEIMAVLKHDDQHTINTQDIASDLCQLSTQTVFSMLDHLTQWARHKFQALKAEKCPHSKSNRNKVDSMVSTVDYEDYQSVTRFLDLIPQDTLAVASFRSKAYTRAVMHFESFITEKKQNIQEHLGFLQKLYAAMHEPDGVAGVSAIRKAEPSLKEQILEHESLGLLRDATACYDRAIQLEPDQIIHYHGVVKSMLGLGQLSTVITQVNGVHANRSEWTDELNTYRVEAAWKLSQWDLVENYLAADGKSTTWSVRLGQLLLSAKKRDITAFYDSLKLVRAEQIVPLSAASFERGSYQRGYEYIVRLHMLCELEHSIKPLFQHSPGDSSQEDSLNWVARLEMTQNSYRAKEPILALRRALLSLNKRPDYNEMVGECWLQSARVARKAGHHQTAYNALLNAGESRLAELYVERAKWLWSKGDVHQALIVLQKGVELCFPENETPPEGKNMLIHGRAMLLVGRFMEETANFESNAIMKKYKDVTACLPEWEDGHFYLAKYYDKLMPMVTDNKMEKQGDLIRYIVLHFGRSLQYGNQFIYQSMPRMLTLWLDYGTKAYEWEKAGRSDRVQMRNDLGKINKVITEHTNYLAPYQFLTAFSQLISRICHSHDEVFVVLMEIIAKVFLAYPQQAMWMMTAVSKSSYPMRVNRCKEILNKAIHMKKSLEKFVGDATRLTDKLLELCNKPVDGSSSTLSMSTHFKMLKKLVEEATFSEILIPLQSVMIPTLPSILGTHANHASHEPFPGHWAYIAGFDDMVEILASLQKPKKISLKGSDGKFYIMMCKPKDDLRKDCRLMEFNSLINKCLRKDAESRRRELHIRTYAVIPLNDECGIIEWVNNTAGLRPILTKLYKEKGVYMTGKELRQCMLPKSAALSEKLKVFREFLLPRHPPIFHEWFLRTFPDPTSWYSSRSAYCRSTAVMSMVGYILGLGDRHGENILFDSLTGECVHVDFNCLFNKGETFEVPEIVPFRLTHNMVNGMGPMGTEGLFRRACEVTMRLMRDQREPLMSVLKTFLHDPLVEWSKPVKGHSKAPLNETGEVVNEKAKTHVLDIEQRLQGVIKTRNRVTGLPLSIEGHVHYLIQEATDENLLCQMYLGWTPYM
# Chain of ATR (Q8WXE1 whole entry partner): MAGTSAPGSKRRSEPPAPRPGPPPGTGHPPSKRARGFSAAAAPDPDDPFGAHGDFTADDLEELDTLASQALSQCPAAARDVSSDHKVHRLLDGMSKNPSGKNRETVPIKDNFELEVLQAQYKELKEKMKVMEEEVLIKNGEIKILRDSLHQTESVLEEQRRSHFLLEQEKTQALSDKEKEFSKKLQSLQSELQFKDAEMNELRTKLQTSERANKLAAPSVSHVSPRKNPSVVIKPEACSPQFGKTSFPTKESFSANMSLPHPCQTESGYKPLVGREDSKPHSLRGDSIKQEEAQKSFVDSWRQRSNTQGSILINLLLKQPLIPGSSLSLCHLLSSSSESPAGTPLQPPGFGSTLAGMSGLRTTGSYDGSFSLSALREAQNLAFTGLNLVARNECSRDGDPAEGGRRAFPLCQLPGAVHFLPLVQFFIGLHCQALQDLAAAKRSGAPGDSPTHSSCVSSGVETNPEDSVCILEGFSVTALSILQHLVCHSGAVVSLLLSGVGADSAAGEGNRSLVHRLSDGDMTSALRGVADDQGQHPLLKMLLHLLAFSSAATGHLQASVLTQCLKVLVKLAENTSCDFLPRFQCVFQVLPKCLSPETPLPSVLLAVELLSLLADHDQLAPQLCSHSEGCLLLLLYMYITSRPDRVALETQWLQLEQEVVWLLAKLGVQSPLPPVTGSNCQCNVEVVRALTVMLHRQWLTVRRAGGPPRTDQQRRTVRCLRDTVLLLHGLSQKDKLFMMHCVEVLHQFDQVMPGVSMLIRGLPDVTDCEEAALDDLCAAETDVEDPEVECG
Compound,inhibition of ATR signaling [1],effect on TP53-mutant HSCs [2]
Cn1cncc1-c1c(F)cncc1NC(=O)c1c(N)nn2cc(F)cnc12 [M1774],potent and specific inhibitor of ATR signaling,
N.N.[Cl][Pt][Cl] [cis-platinum],,significant expansion of TP53-mutant HSCs
